Results from ChEMBL document CHEMBL1201861, “Genomics of Drug Sensitity in Cancer screening data, Wellcome Trust Sanger Institute”.

system: COLO-792; assay: cells; format: functional, cell-based; conditions: Homo sapiens
Description: SANGER: Inhibition of human COLO-792 cell growth in a cell viability assay.

| SMILES | IC50 [µM] |
| --- | --- |
| O=C1NC(=O)c2c1c(-c1ccccc1Cl)cc1[nH]c3ccc(O)cc3c21 | > 2 |

system: COR-L105; assay: cells; format: functional, cell-based; conditions: Homo sapiens;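 also: cell growth inhibition determined with a viability assay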
Description: SANGER: Inhibition of human COR-L105 cell growth in a cell viability assay.

| SMILES | IC50 [µM] |
| --- | --- |
| O=C1NC(=O)c2c1c(-c1ccccc1Cl)cc1[nH]c3ccc(O)cc3c21 | > 2 |

system: CP50-MEL-B; assay: cells; format: functional, cell-based; conditions: Homo sapiens;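 also: growth inhibition of the human cell line, measured with a cell viability read-out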
Description: SANGER: Inhibition of human CP50-MEL-B cell growth in a cell viability assay.

| SMILES | IC50 [µM] |
| --- | --- |
| O=C1NC(=O)c2c1c(-c1ccccc1Cl)cc1[nH]c3ccc(O)cc3c21 | > 2 |

system: D-336MG; assay: cells; format: functional, cell-based, Homo sapiens; conditions: Homo sapiens, D-336MG
Description: SANGER: Inhibition of human D-336MG cell growth in a cell viability assay.

| SMILES | IC50 [µM] |
| --- | --- |
| O=C1NC(=O)c2c1c(-c1ccccc1Cl)cc1[nH]c3ccc(O)cc3c21 | > 2 |

system: DBTRG-05MG; assay: cells; format: functional, cell-based; conditions: Homo sapiens;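 also: cell viability assay measuring growth inhibition of human DBTRG-05MG cells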
Description: SANGER: Inhibition of human DBTRG-05MG cell growth in a cell viability assay.

| SMILES | IC50 [µM] |
| --- | --- |
| O=C1NC(=O)c2c1c(-c1ccccc1Cl)cc1[nH]c3ccc(O)cc3c21 | > 2 |

system: ESS-1; assay: cells; format: functional, cell-based; conditions: Homo sapiens;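 also: growth inhibition of human ESS-1 cells, read out by a cell viability assay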
Description: SANGER: Inhibition of human ESS-1 cell growth in a cell viability assay.

| SMILES | IC50 [µM] |
| --- | --- |
| O=C1NC(=O)c2c1c(-c1ccccc1Cl)cc1[nH]c3ccc(O)cc3c21 | > 2 |

system: GMS-10; assay: cells; format: functional, cell-based; conditions: Homo sapiens;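 also: growth inhibition of GMS-10 cells, read out as cell viability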
Description: SANGER: Inhibition of human GMS-10 cell growth in a cell viability assay.

| SMILES | IC50 [µM] |
| --- | --- |
| O=C1NC(=O)c2c1c(-c1ccccc1Cl)cc1[nH]c3ccc(O)cc3c21 | > 2 |

system: HCC1419; assay: cells; format: functional, cell-based; conditions: Homo sapiens;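 also: growth inhibition of human HCC1419 cells, read out as cell viability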
Description: SANGER: Inhibition of human HCC1419 cell growth in a cell viability assay.

| SMILES | IC50 [µM] |
| --- | --- |
| O=C1NC(=O)c2c1c(-c1ccccc1Cl)cc1[nH]c3ccc(O)cc3c21 | > 2 |

system: HT-1080; assay: cells; format: functional, cell-based; conditions: Homo sapiens
Description: SANGER: Inhibition of human HT-1080 cell growth in a cell viability assay.

| SMILES | IC50 [µM] |
| --- | --- |
| O=C1NC(=O)c2c1c(-c1ccccc1Cl)cc1[nH]c3ccc(O)cc3c21 | 1.2 |

system: HuO9; assay: cells; format: functional, cell-based; conditions: Homo sapiens;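 also: growth inhibition of HuO9 cells, read out with a cell viability assay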
Description: SANGER: Inhibition of human HuO9 cell growth in a cell viability assay.

| SMILES | IC50 [µM] |
| --- | --- |
| O=C1NC(=O)c2c1c(-c1ccccc1Cl)cc1[nH]c3ccc(O)cc3c21 | 1.96 |

system: KOSC-2; assay: cells; format: functional, cell-based; conditions: Homo sapiens;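 also: growth inhibition of KOSC-2 cells, read out by a cell viability assay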
Description: SANGER: Inhibition of human KOSC-2 cell growth in a cell viability assay.

| SMILES | IC50 [µM] |
| --- | --- |
| O=C1NC(=O)c2c1c(-c1ccccc1Cl)cc1[nH]c3ccc(O)cc3c21 | > 2 |

system: KYSE-180; assay: cells; format: functional, cell-based; conditions: Homo sapiens;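 also: growth inhibition of KYSE-180 cells, read out with a cell viability assay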
Description: SANGER: Inhibition of human KYSE-180 cell growth in a cell viability assay.

| SMILES | IC50 [µM] |
| --- | --- |
| O=C1NC(=O)c2c1c(-c1ccccc1Cl)cc1[nH]c3ccc(O)cc3c21 | > 2 |

system: KYSE-410; assay: cells; format: functional, cell-based; conditions: Homo sapiens;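 also: growth inhibition of KYSE-410 cells, measured through a cell viability readout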
Description: SANGER: Inhibition of human KYSE-410 cell growth in a cell viability assay.

| SMILES | IC50 [µM] |
| --- | --- |
| O=C1NC(=O)c2c1c(-c1ccccc1Cl)cc1[nH]c3ccc(O)cc3c21 | 1.56 |

system: KYSE-450; assay: cells; format: functional, cell-based; conditions: Homo sapiens;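 also: cell growth inhibition measured by a viability assay in human KYSE-450 cells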
Description: SANGER: Inhibition of human KYSE-450 cell growth in a cell viability assay.

| SMILES | IC50 [µM] |
| --- | --- |
| O=C1NC(=O)c2c1c(-c1ccccc1Cl)cc1[nH]c3ccc(O)cc3c21 | > 2 |

system: MDA-MB-361; assay: cells; format: functional, cell-based; conditions: Homo sapiens

| SMILES | IC50 [µM] |
| --- | --- |
| O=C1NC(=O)c2c1c(-c1ccccc1Cl)cc1[nH]c3ccc(O)cc3c21 | > 2 |

system: NCI-H1563; assay: cells; format: functional, cell-based; conditions: Homo sapiens;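 also: growth inhibition of human NCI-H1563 cells, read out with a cell viability assay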
Description: SANGER: Inhibition of human NCI-H1563 cell growth in a cell viability assay.

| SMILES | IC50 [µM] |
| --- | --- |
| O=C1NC(=O)c2c1c(-c1ccccc1Cl)cc1[nH]c3ccc(O)cc3c21 | > 2 |

system: NCI-H650; assay: cells; format: functional, cell-based; conditions: Homo sapiens;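 also: growth inhibition of NCI-H650 cells, read out by a viability assay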
Description: SANGER: Inhibition of human NCI-H650 cell growth in a cell viability assay.

| SMILES | IC50 [µM] |
| --- | --- |
| O=C1NC(=O)c2c1c(-c1ccccc1Cl)cc1[nH]c3ccc(O)cc3c21 | > 2 |

system: NUGC-3; assay: cells; format: functional, cell-based; conditions: Homo sapiens;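 also: growth inhibition of human NUGC-3 cells, read out with a cell viability assay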
Description: SANGER: Inhibition of human NUGC-3 cell growth in a cell viability assay.

| SMILES | IC50 [µM] |
| --- | --- |
| O=C1NC(=O)c2c1c(-c1ccccc1Cl)cc1[nH]c3ccc(O)cc3c21 | > 2 |

system: OE19; assay: cells; format: functional, cell-based; conditions: Homo sapiens;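 also: growth inhibition of OE19 cells, measured through a cell viability read-out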
Description: SANGER: Inhibition of human OE19 cell growth in a cell viability assay.

| SMILES | IC50 [µM] |
| --- | --- |
| O=C1NC(=O)c2c1c(-c1ccccc1Cl)cc1[nH]c3ccc(O)cc3c21 | > 2 |

system: PANC-03-27; assay: cells; format: functional, cell-based; conditions: Homo sapiens
Description: SANGER: Inhibition of human PANC-03-27 cell growth in a cell viability assay.

| SMILES | IC50 [µM] |
| --- | --- |
| O=C1NC(=O)c2c1c(-c1ccccc1Cl)cc1[nH]c3ccc(O)cc3c21 | 1.21 |

system: RPMI-7951; assay: cells; format: functional, cell-based; conditions: Homo sapiens
Description: SANGER: Inhibition of human RPMI-7951 cell growth in a cell viability assay.

| SMILES | IC50 [µM] |
| --- | --- |
| O=C1NC(=O)c2c1c(-c1ccccc1Cl)cc1[nH]c3ccc(O)cc3c21 | > 2 |

system: SAS; assay: cells; format: functional, cell-based; conditions: Homo sapiens;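 also: growth inhibition of SAS cells, read out with a cell viability assay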
Description: SANGER: Inhibition of human SAS cell growth in a cell viability assay.

| SMILES | IC50 [µM] |
| --- | --- |
| O=C1NC(=O)c2c1c(-c1ccccc1Cl)cc1[nH]c3ccc(O)cc3c21 | > 2 |

system: SJRH30; assay: cells; format: functional, cell-based; conditions: Homo sapiens;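 also: growth inhibition of human SJRH30 cells, read out with a cell viability assay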
Description: SANGER: Inhibition of human SJRH30 cell growth in a cell viability assay.

| SMILES | IC50 [µM] |
| --- | --- |
| O=C1NC(=O)c2c1c(-c1ccccc1Cl)cc1[nH]c3ccc(O)cc3c21 | > 2 |

system: SK-LU-1; assay: cells; format: functional, cell-based; conditions: Homo sapiens;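 also: cell viability assay measuring growth inhibition of human SK-LU-1 cells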
Description: SANGER: Inhibition of human SK-LU-1 cell growth in a cell viability assay.

| SMILES | IC50 [µM] |
| --- | --- |
| O=C1NC(=O)c2c1c(-c1ccccc1Cl)cc1[nH]c3ccc(O)cc3c21 | 1 |

system: SKG-IIIa; assay: cells; format: functional, cell-based; conditions: Homo sapiens;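 also: cell growth inhibition, read out with a cell viability assay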
Description: SANGER: Inhibition of human SKG-IIIa cell growth in a cell viability assay.

| SMILES | IC50 [µM] |
| --- | --- |
| O=C1NC(=O)c2c1c(-c1ccccc1Cl)cc1[nH]c3ccc(O)cc3c21 | > 2 |

system: SN12C; assay: cells; format: functional, cell-based; conditions: Homo sapiens;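 also: growth inhibition of human SN12C cells, measured by a cell viability assay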
Description: SANGER: Inhibition of human SN12C cell growth in a cell viability assay.

| SMILES | IC50 [µM] |
| --- | --- |
| O=C1NC(=O)c2c1c(-c1ccccc1Cl)cc1[nH]c3ccc(O)cc3c21 | > 2 |

system: SiHa; assay: cells; format: functional, cell-based; conditions: Homo sapiens;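 also: Viability-based readout of growth inhibition in SiHa cells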
Description: SANGER: Inhibition of human SiHa cell growth in a cell viability assay.

| SMILES | IC50 [µM] |
| --- | --- |
| O=C1NC(=O)c2c1c(-c1ccccc1Cl)cc1[nH]c3ccc(O)cc3c21 | > 2 |

system: A 172; assay: cells; format: functional, cell-based; conditions: Homo sapiens;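 also: growth inhibition of A172 cells, measured with a cell viability readout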
Description: SANGER: Inhibition of human A172 cell growth in a cell viability assay.

| SMILES | IC50 [µM] |
| --- | --- |
| O=C1NC(=O)c2c1c(-c1ccccc1Cl)cc1[nH]c3ccc(O)cc3c21 | > 2 |

system: AGS; assay: cells; format: functional, cell-based; conditions: Homo sapiens;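 also: growth inhibition of AGS cells, determined with a cell viability assay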
Description: SANGER: Inhibition of human AGS cell growth in a cell viability assay.

| SMILES | IC50 [µM] |
| --- | --- |
| O=C1NC(=O)c2c1c(-c1ccccc1Cl)cc1[nH]c3ccc(O)cc3c21 | > 2 |

system: AN3-CA; assay: cells; format: functional, cell-based; conditions: Homo sapiens;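 also: growth inhibition of human AN3-CA cells measured by a cell viability assay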
Description: SANGER: Inhibition of human AN3-CA cell growth in a cell viability assay.

| SMILES | IC50 [µM] |
| --- | --- |
| O=C1NC(=O)c2c1c(-c1ccccc1Cl)cc1[nH]c3ccc(O)cc3c21 | > 2 |

system: BT-20; assay: cells; format: functional, cell-based; conditions: Homo sapiens;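 also: cell viability assay measuring suppression of growth in human BT-20 cells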
Description: SANGER: Inhibition of human BT-20 cell growth in a cell viability assay.

| SMILES | IC50 [µM] |
| --- | --- |
| O=C1NC(=O)c2c1c(-c1ccccc1Cl)cc1[nH]c3ccc(O)cc3c21 | > 2 |

system: CAL-12T; assay: cells; format: functional, cell-based; conditions: Homo sapiens;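 also: growth inhibition of human CAL-12T cells, read out with a cell viability assay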
Description: SANGER: Inhibition of human CAL-12T cell growth in a cell viability assay.

| SMILES | IC50 [µM] |
| --- | --- |
| O=C1NC(=O)c2c1c(-c1ccccc1Cl)cc1[nH]c3ccc(O)cc3c21 | > 2 |

system: U-118-MG; assay: cells; format: functional, cell-based; conditions: Homo sapiens
Description: SANGER: Inhibition of human U-118-MG cell growth in a cell viability assay.

| SMILES | IC50 [µM] |
| --- | --- |
| O=C1NC(=O)c2c1c(-c1ccccc1Cl)cc1[nH]c3ccc(O)cc3c21 | > 2 |

system: YAPC; assay: cells; format: functional, cell-based; conditions: Homo sapiens;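 also: growth inhibition of YAPC cells, measured with a cell viability assay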
Description: SANGER: Inhibition of human YAPC cell growth in a cell viability assay.

| SMILES | IC50 [µM] |
| --- | --- |
| O=C1NC(=O)c2c1c(-c1ccccc1Cl)cc1[nH]c3ccc(O)cc3c21 | > 2 |

system: COLO-678; assay: cells; format: functional, cell-based; conditions: Homo sapiens
Description: SANGER: Inhibition of human COLO-678 cell growth in a cell viability assay.

| SMILES | IC50 [µM] |
| --- | --- |
| O=C1NC(=O)c2c1c(-c1ccccc1Cl)cc1[nH]c3ccc(O)cc3c21 | > 2 |

system: COLO-679; assay: cells; format: functional, cell-based; conditions: Homo sapiens
Description: SANGER: Inhibition of human COLO-679 cell growth in a cell viability assay.

| SMILES | IC50 [µM] |
| --- | --- |
| O=C1NC(=O)c2c1c(-c1ccccc1Cl)cc1[nH]c3ccc(O)cc3c21 | > 2 |

system: COLO-680N; assay: cells; format: functional, cell-based; conditions: Homo sapiens;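 also: cell viability assay used to measure inhibition of COLO-680N cell growth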
Description: SANGER: Inhibition of human COLO-680N cell growth in a cell viability assay.

| SMILES | IC50 [µM] |
| --- | --- |
| O=C1NC(=O)c2c1c(-c1ccccc1Cl)cc1[nH]c3ccc(O)cc3c21 | > 2 |
